Measured values reported in the NIST ThermoML archive (doi:10.1016/j.fluid.2005.05.023).
± gives the expanded uncertainty stated by the source.

Test: xn = mol fraction of the nth substance listed
Conditions: Liquid, Vibrating tube method

Cc1ccccc1 [toluene] + CCO
mass density [kg/m3]
Conditions | 100 kPa | 5000 kPa | 10000 kPa | 15000 kPa | 20000 kPa | 25000 kPa | 30000 kPa | 35000 kPa | 40000 kPa | 45000 kPa
283.15 K, x2 = 0 | 876.1 ± 0.2 | 879.5 ± 0.2 | 882.9 ± 0.3 | 886.1 ± 0.3 | 889.3 ± 0.3 | 892.4 ± 0.3 | 895.3 ± 0.3 | 898.2 ± 0.3 | 901 ± 0.3 | 903.7 ± 0.3
283.15 K, x2 = 0.125 | 870.4 ± 0.3 | 873.9 ± 0.3 | 877.4 ± 0.3 | 880.7 ± 0.3 | 883.8 ± 0.3 | 886.9 ± 0.3 | 889.9 ± 0.3 | 892.8 ± 0.3 | 895.6 ± 0.3 | 898.4 ± 0.3
283.15 K, x2 = 0.25 | 864.3 ± 0.3 | 867.9 ± 0.3 | 871.3 ± 0.3 | 874.6 ± 0.3 | 877.9 ± 0.3 | 881 ± 0.3 | 884 ± 0.3 | 886.9 ± 0.3 | 889.7 ± 0.3 | 892.5 ± 0.3
283.15 K, x2 = 0.375 | 857.5 ± 0.3 | 861.1 ± 0.3 | 864.6 ± 0.3 | 867.9 ± 0.3 | 871.2 ± 0.3 | 874.3 ± 0.3 | 877.3 ± 0.3 | 880.3 ± 0.3 | 883.1 ± 0.3 | 885.9 ± 0.4
283.15 K, x2 = 0.5 | 849.5 ± 0.3 | 853.2 ± 0.3 | 856.7 ± 0.3 | 860.1 ± 0.3 | 863.4 ± 0.3 | 866.5 ± 0.3 | 869.6 ± 0.3 | 872.5 ± 0.3 | 875.4 ± 0.4 | 878.2 ± 0.4
283.15 K, x2 = 0.625 | 840.2 ± 0.3 | 843.9 ± 0.3 | 847.5 ± 0.3 | 850.9 ± 0.3 | 854.2 ± 0.3 | 857.4 ± 0.3 | 860.5 ± 0.4 | 863.5 ± 0.4 | 866.4 ± 0.4 | 869.2 ± 0.4
283.15 K, x2 = 0.75 | 829.2 ± 0.3 | 832.9 ± 0.3 | 836.5 ± 0.3 | 840 ± 0.3 | 843.4 ± 0.3 | 846.6 ± 0.4 | 849.7 ± 0.4 | 852.8 ± 0.4 | 855.7 ± 0.4 | 858.6 ± 0.4
283.15 K, x2 = 0.875 | 815.4 ± 0.3 | 819.2 ± 0.4 | 823 ± 0.4 | 826.5 ± 0.4 | 829.9 ± 0.4 | 833.2 ± 0.4 | 836.4 ± 0.4 | 839.5 ± 0.4 | 842.5 ± 0.4 | 845.4 ± 0.5
293.15 K, x2 = 0 | 866.8 ± 0.2 | 870.5 ± 0.2 | 874.1 ± 0.3 | 877.5 ± 0.3 | 880.8 ± 0.3 | 884 ± 0.3 | 887.1 ± 0.3 | 890.1 ± 0.3 | 893 ± 0.3 | 895.9 ± 0.3
293.15 K, x2 = 0.125 | 861 ± 0.3 | 864.7 ± 0.3 | 868.3 ± 0.3 | 871.8 ± 0.3 | 875.1 ± 0.3 | 878.4 ± 0.3 | 881.5 ± 0.3 | 884.6 ± 0.3 | 887.5 ± 0.3 | 890.4 ± 0.3
293.15 K, x2 = 0.25 | 854.9 ± 0.3 | 858.6 ± 0.3 | 862.3 ± 0.3 | 865.8 ± 0.3 | 869.2 ± 0.3 | 872.5 ± 0.3 | 875.6 ± 0.3 | 878.7 ± 0.3 | 881.7 ± 0.3 | 884.5 ± 0.4
293.15 K, x2 = 0.375 | 848.1 ± 0.3 | 851.8 ± 0.3 | 855.5 ± 0.3 | 859.1 ± 0.3 | 862.5 ± 0.3 | 865.8 ± 0.3 | 869 ± 0.3 | 872.1 ± 0.3 | 875.1 ± 0.4 | 878 ± 0.4
293.15 K, x2 = 0.5 | 840.3 ± 0.3 | 844 ± 0.3 | 847.8 ± 0.3 | 851.4 ± 0.3 | 854.8 ± 0.3 | 858.1 ± 0.3 | 861.4 ± 0.3 | 864.5 ± 0.4 | 867.5 ± 0.4 | 870.4 ± 0.4
293.15 K, x2 = 0.625 | 831.1 ± 0.3 | 834.9 ± 0.3 | 838.7 ± 0.3 | 842.3 ± 0.3 | 845.8 ± 0.3 | 849.2 ± 0.3 | 852.4 ± 0.4 | 855.5 ± 0.4 | 858.6 ± 0.4 | 861.5 ± 0.4
293.15 K, x2 = 0.75 | 820.2 ± 0.3 | 824.1 ± 0.3 | 827.9 ± 0.3 | 831.6 ± 0.3 | 835.1 ± 0.4 | 838.5 ± 0.4 | 841.8 ± 0.4 | 845 ± 0.4 | 848 ± 0.4 | 851 ± 0.4
293.15 K, x2 = 0.875 | 806.6 ± 0.3 | 810.6 ± 0.3 | 814.5 ± 0.4 | 818.3 ± 0.4 | 821.9 ± 0.4 | 825.4 ± 0.4 | 828.7 ± 0.4 | 831.9 ± 0.4 | 835 ± 0.5 | 838 ± 0.5
303.15 K, x2 = 0 | 857.5 ± 0.2 | 861.4 ± 0.2 | 865.2 ± 0.3 | 868.8 ± 0.3 | 872.3 ± 0.3 | 875.7 ± 0.3 | 879 ± 0.3 | 882.1 ± 0.3 | 885.2 ± 0.3 | 888.1 ± 0.3
303.15 K, x2 = 0.125 | 851.4 ± 0.3 | 855.4 ± 0.3 | 859.2 ± 0.3 | 862.9 ± 0.3 | 866.4 ± 0.3 | 869.9 ± 0.3 | 873.2 ± 0.3 | 876.4 ± 0.3 | 879.4 ± 0.3 | 882.5 ± 0.4
303.15 K, x2 = 0.25 | 845.3 ± 0.3 | 849.3 ± 0.3 | 853.2 ± 0.3 | 856.9 ± 0.3 | 860.5 ± 0.3 | 863.9 ± 0.3 | 867.3 ± 0.3 | 870.4 ± 0.3 | 873.6 ± 0.4 | 876.6 ± 0.4
303.15 K, x2 = 0.375 | 838.5 ± 0.3 | 842.6 ± 0.3 | 846.5 ± 0.3 | 850.3 ± 0.3 | 853.9 ± 0.3 | 857.3 ± 0.3 | 860.7 ± 0.3 | 863.9 ± 0.3 | 867.1 ± 0.4 | 870.1 ± 0.4
303.15 K, x2 = 0.5 | 830.8 ± 0.3 | 834.8 ± 0.3 | 838.8 ± 0.3 | 842.6 ± 0.3 | 846.2 ± 0.3 | 849.7 ± 0.3 | 853.1 ± 0.3 | 856.4 ± 0.4 | 859.5 ± 0.4 | 862.6 ± 0.4
303.15 K, x2 = 0.625 | 821.7 ± 0.3 | 825.8 ± 0.3 | 829.8 ± 0.3 | 833.7 ± 0.3 | 837.3 ± 0.3 | 840.9 ± 0.3 | 844.3 ± 0.4 | 847.6 ± 0.4 | 850.7 ± 0.4 | 853.8 ± 0.4
303.15 K, x2 = 0.75 | 810.9 ± 0.3 | 815.1 ± 0.3 | 819.2 ± 0.3 | 823.1 ± 0.3 | 826.8 ± 0.4 | 830.4 ± 0.4 | 833.8 ± 0.4 | 837.1 ± 0.4 | 840.3 ± 0.4 | 843.4 ± 0.4
303.15 K, x2 = 0.875 | 797.6 ± 0.3 | 801.9 ± 0.3 | 806.1 ± 0.4 | 810 ± 0.4 | 813.8 ± 0.4 | 817.4 ± 0.4 | 820.9 ± 0.4 | 824.3 ± 0.4 | 827.5 ± 0.5 | 830.6 ± 0.5
313.15 K, x2 = 0 | 848.1 ± 0.2 | 852.2 ± 0.3 | 856.2 ± 0.3 | 860 ± 0.3 | 863.7 ± 0.3 | 867.3 ± 0.3 | 870.7 ± 0.3 | 874 ± 0.3 | 877.2 ± 0.3 | 880.3 ± 0.3
313.15 K, x2 = 0.125 | 841.8 ± 0.3 | 845.9 ± 0.3 | 850 ± 0.3 | 853.9 ± 0.3 | 857.7 ± 0.3 | 861.3 ± 0.3 | 864.7 ± 0.3 | 868.1 ± 0.3 | 871.3 ± 0.4 | 874.5 ± 0.4
313.15 K, x2 = 0.25 | 835.6 ± 0.3 | 839.8 ± 0.3 | 844 ± 0.3 | 847.9 ± 0.3 | 851.7 ± 0.3 | 855.3 ± 0.3 | 858.8 ± 0.3 | 862.2 ± 0.3 | 865.4 ± 0.4 | 868.6 ± 0.4
313.15 K, x2 = 0.375 | 828.9 ± 0.3 | 833.2 ± 0.3 | 837.3 ± 0.3 | 841.3 ± 0.3 | 845.1 ± 0.3 | 848.8 ± 0.3 | 852.3 ± 0.3 | 855.7 ± 0.4 | 859 ± 0.4 | 862.2 ± 0.4
313.15 K, x2 = 0.5 | 821.2 ± 0.3 | 825.5 ± 0.3 | 829.7 ± 0.3 | 833.7 ± 0.3 | 837.5 ± 0.3 | 841.2 ± 0.3 | 844.8 ± 0.4 | 848.2 ± 0.4 | 851.5 ± 0.4 | 854.7 ± 0.4
313.15 K, x2 = 0.625 | 812.2 ± 0.3 | 816.5 ± 0.3 | 820.8 ± 0.3 | 824.8 ± 0.3 | 828.7 ± 0.3 | 832.5 ± 0.4 | 836 ± 0.4 | 839.4 ± 0.4 | 842.8 ± 0.4 | –
313.15 K, x2 = 0.75 | 801.6 ± 0.3 | 806 ± 0.3 | 810.3 ± 0.3 | 814.4 ± 0.3 | 818.3 ± 0.4 | 822.1 ± 0.4 | 825.7 ± 0.4 | 829.2 ± 0.4 | 832.5 ± 0.4 | –
313.15 K, x2 = 0.875 | 788.6 ± 0.3 | 793.1 ± 0.3 | 797.5 ± 0.4 | 801.6 ± 0.4 | 805.6 ± 0.4 | 809.4 ± 0.4 | 813.1 ± 0.4 | 816.6 ± 0.4 | 819.9 ± 0.5 | –
